# Laboratory results reported in ChEMBL document CHEMBL4152229, “Synthesis and biological evaluation of 2,6-disubstituted-9H-purine, 2,4-disubstitued-thieno[3,2-d]pyrimidine and -7H-pyrrolo[2,3-d]pyrimidine analogues as novel CHK1 inhibitors” (Eur J Med Chem, 2018).
# Key:
# [1] = target: T1, Serine/threonine-protein kinase Chk1 (Homo sapiens) (UniProt O14757); experiment: Inhibition of CHK1 (unknown origin) at 10 uM using Cdc25 peptide as substrate preincubated for 30 mins followed by substrate addition and measured after 60 mins by ADP-Glo kinase assay
# T1 sequence (whole entry): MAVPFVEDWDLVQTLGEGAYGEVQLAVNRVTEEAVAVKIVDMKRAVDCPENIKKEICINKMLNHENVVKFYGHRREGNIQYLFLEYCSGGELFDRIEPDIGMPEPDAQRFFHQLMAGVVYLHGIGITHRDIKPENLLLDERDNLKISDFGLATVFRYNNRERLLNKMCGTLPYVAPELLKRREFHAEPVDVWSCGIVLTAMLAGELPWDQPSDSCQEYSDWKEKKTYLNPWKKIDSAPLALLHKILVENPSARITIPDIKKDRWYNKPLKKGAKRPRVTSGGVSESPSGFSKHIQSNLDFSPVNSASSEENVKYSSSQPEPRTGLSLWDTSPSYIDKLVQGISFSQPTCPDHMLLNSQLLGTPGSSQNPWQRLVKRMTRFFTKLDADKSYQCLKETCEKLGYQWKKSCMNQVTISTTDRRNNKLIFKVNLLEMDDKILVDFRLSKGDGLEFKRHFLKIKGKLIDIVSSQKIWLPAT
# HT-29 [2] = experiment: cells; conditions: Homo sapiens, HT-29, 72 h
# Description: Antiproliferative activity against human HT-29 cells after 72 hrs by MTS assay
# HEK293 = experiment: Antiproliferative activity against human HEK293 cells after 72 hrs by MTS assay; type: functional; conditions: HEK293, 72 h
# [3] = target: T2, Serine/threonine-protein kinase Chk1 (Homo sapiens, UniProt O14757); experiment: Inhibition of CHK1 (unknown origin) using Cdc25 peptide as substrate preincubated for 30 mins followed by substrate addition and measured after 60 mins by ADP-Glo kinase assay
# T2 sequence (O14757 whole entry): T1 sequence (whole entry)
# HT-29 [4] = experiment: Cell cycle arrest in human HT-29 cells assessed as accumulation at S phase at 25 nM after 48 hrs by propidium iodide/RNase staining-based flow cytometric analysis (reference value: 30.9%); type: functional
# HT-29 [5] = experiment: Cell cycle arrest in human HT-29 cells assessed as accumulation at G2 phase at 25 nM after 48 hrs by propidium iodide/RNase staining-based flow cytometric analysis (reference value: 7.0%); type: functional
# HT-29 [6] = experiment: Cell cycle arrest in human HT-29 cells assessed as accumulation at G1 phase at 25 nM after 48 hrs by propidium iodide/RNase staining-based flow cytometric analysis (reference value: 62.1%); type: functional
Structure (SMILES),inhibition [1] [%],GI50 (HT-29 [2]) [µM],GI50 (HEK293) [µM],IC50 [3] [µM],Activity (HT-29 [4]) [%],Activity (HT-29 [5]) [%],Activity (HT-29 [6]) [%]
COc1ccc(Nc2nc(N3CCOCC3)c3cc[nH]c3n2)cc1,16.7,38.4,63.6,,,,
Fc1ccc(Nc2nc(NC3CCOCC3)c3nc[nH]c3n2)cc1,37.2,86.9,> 100,,,,
Clc1cccc(Nc2nc(N3CCOCC3)c3nc[nH]c3n2)c1,77.3,34.8,38.4,2.83,,,
FC(F)(F)Oc1cccc(Nc2nc(N3CCOCC3)c3nc[nH]c3n2)c1,31.6,> 100,> 100,,,,
c1ccc(Nc2nc(NC3CCOCC3)c3nc[nH]c3n2)cc1,61.5,80.3,31.5,,,,
FC(F)(F)c1cccc(Nc2nc(N3CCOCC3)c3nc[nH]c3n2)c1,61.3,29.1,31.4,,,,
c1ccc2ncc(Nc3nc(N4CCOCC4)c4nc[nH]c4n3)cc2c1,63.1,25.1,22.3,,,,
c1ccc(Nc2nc(N3CCOCC3)c3nc[nH]c3n2)cc1,82.4,> 100,60.2,2.57,,,
COc1cc(Nc2nc(N3CCOCC3)c3nc[nH]c3n2)cc(OC)c1OC,35.8,> 100,> 100,,,,
c1cnc(Nc2nc(N3CCOCC3)c3nc[nH]c3n2)cn1,38.2,> 100,27.2,,,,
COc1ccc(Nc2nc(N3CCOCC3)c3nc[nH]c3n2)cc1,51,74.5,> 100,,,,
N#Cc1cnc(Nc2cc(NC[C@H]3CNCCO3)c(C(F)(F)F)cn2)cn1 [SRA-737],,9.22,1.39,,,,
c1cncc(Nc2nc(N3CCOCC3)c3nc[nH]c3n2)c1,82.2,> 100,33.7,8.06,,,
COc1cccc(Nc2nc(N3CCOCC3)c3nc[nH]c3n2)c1,84.9,72.6,38.7,3.63,,,
Nc1ccn([C@@H]2O[C@H](CO)[C@@H](O)C2(F)F)c(=O)n1 [GEMCITABINE],,,,,10.5,85.2,4.3
c1ccc(Nc2nc(N3CCOCC3)c3cc[nH]c3n2)cc1,44.5,58.3,64.7,,,,
O=C(Nc1cccc(Nc2nc(N3CCOCC3)c3nc[nH]c3n2)c1)C(F)(F)F,50,58,73.6,,,,
NC(=O)Nc1cc(-c2cccc(F)c2)sc1C(=O)N[C@H]1CCCNC1 [AZD-7762],,0.167,0.236,,,,
c1ccc(Nc2nc(N3CCOCC3)c3sccc3n2)cc1,,54.5,> 100,,,,
COc1ccc(Nc2nc(N3CCOCC3)c3sccc3n2)cc1,,29.7,> 100,,,,
Cc1cccc(Nc2nc(N3CCOCC3)c3nc[nH]c3n2)c1,85.2,67.6,40.5,1.27,,,
NC(=O)c1ccc(Nc2nc(N3CCOCC3)c3nc[nH]c3n2)cn1,80.3,72.2,72.2,9.87,,,
COc1cc(Nc2nc(N3CCOCC3)c3sccc3n2)cc(OC)c1OC,,31.6,> 100,,,,
COc1ccccc1Nc1nc(N2CCOCC2)c2nc[nH]c2n1,3.8,> 100,> 100,,,,
Fc1cccc(Nc2nc(N3CCOCC3)c3nc[nH]c3n2)c1,92,60.8,33.7,3.6,,,
COc1cc(Nc2nc(N3CCOCC3)c3cc[nH]c3n2)cc(OC)c1OC,26.9,50.4,58.7,,,,
